Results reported in publication PMC9246869, “Allosteric inhibition of PPM1D serine/threonine phosphatase via an altered conformational state” (Nature Communications, 2022).
“And” between values parts separate entries of the source, which are not always exact repeats. Equal values may be shown once.

Biological target: T1, PPM1D1–420 (Homo sapiens, UniProt O15297)
T1 construct: PPM1D1–420 was PCR-amplified from the synthesized gene with BsaI sites; His(6)-SUMO (N, cleaved yes); made in house; host or cells: E. coli BL21 (DE3)
T1 sequence (O15297 1-420): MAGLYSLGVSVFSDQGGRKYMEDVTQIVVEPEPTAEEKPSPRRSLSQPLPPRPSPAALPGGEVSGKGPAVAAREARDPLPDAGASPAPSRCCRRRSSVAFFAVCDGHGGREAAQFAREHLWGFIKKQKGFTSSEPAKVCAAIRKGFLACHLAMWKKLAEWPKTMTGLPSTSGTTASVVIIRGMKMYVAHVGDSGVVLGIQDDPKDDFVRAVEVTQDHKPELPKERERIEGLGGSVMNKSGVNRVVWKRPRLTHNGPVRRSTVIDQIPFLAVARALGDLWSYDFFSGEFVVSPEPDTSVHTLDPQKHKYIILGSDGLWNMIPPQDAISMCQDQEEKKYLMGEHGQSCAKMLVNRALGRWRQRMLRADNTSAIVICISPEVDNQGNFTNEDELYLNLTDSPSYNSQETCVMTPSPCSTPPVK
Test: Isothermal titration calorimetry (ITC)
Type: binding
Parameters: DH / DS: unit not given here
Conditions: Fig 3F
Procedure: Assessments of the analog of GSK2830371 (analog 1d) binding to wild-type and mutant proteins were conducted using an Auto-iTC200 microcalorimeter (Malvern) (see section on synthesis of analog 1d below). The protein was dialyzed extensively into 25 mM HEPES (pH 7.4), 150 mM NaCl, 10 mM MgCl2 and 1 mM TCEP. The dialyzed protein was used to prepare fresh working solutions of protein (20 µM) and analog 1d (200 µM) in 2% DMSO (v/v) in the same buffer. Titrations were performed at 25 °C and consisted of a single initial injection of 0.4 µL, followed by 19 injections of 2 µL of compound into a sample cell containing wild-type or mutant PPM1D, with an interval of 150 s between successive injections. The reference power and stirring speed were set at […] and 1000 RPM, respectively. Heat of dilution and mixing were obtained from injections of analog 1d into ITC buffer lacking protein and subtracted from the integrated data before curve fitting. Thermodynamic data were analyzed using Origin 7.0 software and fitted by non-linear regression to the model for a single binding site.

SMILES: Cc1ncc(Cl)cc1NCc1ccc(C(=O)N[C@@H](CC2CCCC2)C(=O)NC2CC2)s1 [GSK2830371]
- DH (Average of 3 trials): -3090.67
- DS (Average of 3 trials): 26.3
- DH (individual trials): -2879 and -3158 and -3235
- DS (individual trials): 27.7 and 25.8 and 25.4
